These results are taken from PubChem BioAssay (NCI).

Holding throughout (experiment): NCI anticancer screen, dose series, 48 h
Test [1] relates to COLO 205 colon.
In test [2] the test system is HS 578T breast.
Test [3] relates to CCRF-CEM leukemia.
The subject of test [4] is HL-60(TB) leukemia.
The subject of test [5] is RXF 393 renal.
Test [6] relates to A549 NSCLC.
Test [7] concerns SNB-19 CNS.
In test [8] the test system is SF-539 CNS.
Test [9] relates to BT-549 breast.
The test system of test [10] is HCC-2998 colon.

The structures appear in SMILES notation. Several values for one entry are separate records, joined by “and”; a condition that tells them apart may be missing. Equal entries are not always repeated.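 Interpolation was linear, between the two tested concentrations surrounding the appropriate level; five concentrations were tested over 48 hours in 96-well plates. Abbreviation: GI50, concentration required for 50% inhibition of growth. TGI: total growth inhibition.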

Regarding `C=C(C)[C@@H]1CC[C@]2(COC3CCCCO3)CC[C@]3(C)[C@H](CC[C@@H]4[C@@]5(C)C=C(C=O)C(=O)C(C)(C)[C@@H]5CC[C@]43C)[C@@H]12` (stereo not given in full), the GI50 was 1.62 µM in test [1]; 1.39 µM in test [2]; 0.386 µM in [3]; 1.56 µM in [4]; 1.24 µM in [5]; 1.56 µM in [6]. For the same molecule, the GI50 in test [7] is 1.35 µM; in test [8] it was 1.21 µM; in test [9], 1.42 µM; in test [10] it was 2.04 µM. Besides, the TGI was found to be 3.48 µM in [1]; 3.77 µM in [2]; 2.57 µM in test [3]; 5.37 µM in [4]; 2.73 µM in test [5]; 3.15 µM in [6]. For the same molecule, the TGI stood at 2.89 µM in test [7], 2.58 µM in test [8], 2.78 µM in test [9] and 4.2 µM in [10].
`O=C(O)C1(Cc2cccc(Nc3nccs3)n2)CCC(Oc2cccc(Cl)c2F)CC1` (stereo not given): the GI50 in test [1] was 0.876 µM; in [2] it was 10.4 µM; in test [3], 1.23 µM; in [4] it was 3.43 µM; in test [5] it was 0.0488 µM; in test [6] it was 5.8 µM. Also, the GI50 was 20 µM in [7], 6.73 µM in [8], 14.6 µM in test [9] and 18.2 µM in [10]. Moreover, the TGI is 19.3 µM in test [1]; 64 µM in test [2]; > 55.1 µM in [3]; > 67.3 µM in [4]; 12.8 µM in test [5]; > 60 µM in [6]. Moreover, the TGI in test [7] is 73.9 µM; in test [8] it was 24.4 µM; in test [9] it was 32.1 µM; in test [10] it was 34.2 µM.
On to `O=C1/C(=C/c2ccccc2)CN(C(=O)OCc2ccccc2)C/C1=C\c1ccccc1`, for which the TGI in test [1] is 34.1 µM; in test [2], 10.1 µM; in test [3], 8.4 µM and 8.56 µM; in test [4] it was 5.43 µM; in [5], 19.8 µM; in test [6], > 46.4 µM. Moreover, the TGI in test [7] was > 46.4 µM; in [8], 30.9 µM; in [9] it was 33.2 µM; in test [10] it was 18.3 µM.
As for `Cc1c(NC(=O)OC[C@@H]2COCCN2)cn2ncnc(Nc3ccc4c(cnn4Cc4cccc(F)c4)c3)c12`, the GI50 in test [1] was 4.75 µM and 5.07 µM; in [2] it was 2.32 µM and 5.49 µM; in [3], > 10 µM and 11 µM; in [4], 7.76 µM and 17.5 µM; in test [5], 2.89 µM and 4.15 µM; in [6], > 10 µM and 8.26 µM. In addition, the GI50 in [7] is > 10 µM and 9.04 µM; in test [8] it was > 10 µM and 11.3 µM; in [9], > 10 µM and 8.52 µM; in test [10] it was > 10 µM and 12 µM. The TGI in test [1] was > 10 µM and 16.9 µM; in test [2] it was > 10 µM and 52.2 µM; in [3] it was > 10 µM and 34.3 µM; in [4], > 10 µM and 37 µM; in [5] it was > 10 µM and 15.3 µM; in test [6] it was > 10 µM and 21.5 µM. The TGI is > 10 µM and 23.2 µM in [7]; > 10 µM and 25.2 µM in test [8]; > 10 µM and 22.7 µM in test [9]; > 10 µM and 25 µM in [10].
Turning to `COc1ccccc1S(=O)(=O)Nc1ccc2c(c1)CN(C)C(=O)N2`, the GI50 was 2.61 µM and 2.8 µM in test [1]; 2.53 µM and 2.23 µM in test [2]; 5.31 µM and 7.05 µM in test [3]; 1.18 µM and 2.7 µM in test [4]; 4.72 µM and 5.16 µM in test [5]; 9.07 µM and 22.2 µM in test [6]. Besides, the GI50 was 7.3 µM and 5.07 µM in test [7]; 4.68 µM and 4.87 µM in [8]; 9.98 µM and 26.3 µM in [9]; 6.76 µM and 9.52 µM in [10]. Moreover, the TGI is > 100 µM in [1]; > 100 µM in test [2]; > 100 µM in test [3]; > 100 µM in [4]; 28.3 µM and > 60.2 µM in test [5]; > 100 µM in [6]. Also, the TGI in test [7] is > 100 µM; in test [8], 99.2 µM and > 100 µM; in [9], > 100 µM; in [10], > 65.1 µM and 81.5 µM.
Turning to `COc1ccc2c(c1)[n+](=O)c(C(=O)/C=C/c1cc(OC)c(OC)c(OC)c1)c(C)n2[O-]`, the GI50 is 65 µM in test [1]; 11.8 µM in [2]; 28 µM in test [3]; > 100 µM in test [4]; 6.47 µM in [5]; 34.9 µM in [6]. The GI50 in test [7] is 14.1 µM; in test [8] it was 14.4 µM; in [9] it was 12.6 µM; in test [10], 42.9 µM. Besides, the TGI in [1] was > 100 µM; in test [2] it was 34.5 µM; in [3], > 100 µM; in [4], > 100 µM; in test [5], 21.5 µM; in test [6], > 100 µM. Moreover, the TGI in test [7] was 36.5 µM; in [8] it was 29.7 µM; in test [9], 28.9 µM; in test [10], > 100 µM.
